# Experimental data reported in patent publication US5693650A, “4-(Quinolin-2-yl-methoxy)-phenyl-acetic acid derivatives” (Bayer Aktiengesellschaft, priority 1994, dated 1997).
# Tested on: ApoB-100-associated lipoproteins
# Assay: Inhibition of the release of ApoB-100-associated lipoproteins from liver cells (HepG2), immunoassay for human LDL
# Format: cell-based
# Details: release of ApoB-100-associated particles into HepG2 culture supernatant, 50% inhibition of light adsorption at 450 nm vs solvent control
# Protocol: The test for detection of the inhibition of the release of ApoB-100-associated lipoproteins from liver cells was carried out in vitro with cultured liver cells, preferably with cells of the human line HepG2. These cells are grown under standard conditions in a medium for culture of eukaryotic cells, preferably in RPMI 1640, with 10% of foetal calf serum. HepG2 cells synthesize and secrete into the culture supernatant ApoB-100-associated lipoprotein particles, which in principle are built up in a similar manner to the VLDL and LDL particles which are to be found in the plasma.
# These particles can be detected with an immunoassay for human LDL. This immunoassay is carried out with antibodies which have been induced against human LDL in the rabbit under standard conditions. The anti-LDL antibodies (rab-anti-LDL-ab) were purified by affinity chromatography on an immunosorbent with human LDL. These purified rab-anti-LDL-ab are adsorbed onto the surface of plastic. This adsorption is expediently carried out on the plastic surface of microtiter plates having 96 wells, preferably on MaxiSorp plates (Nunc). If ApoB-100-associated particles are present in the supernatant of HepG2 cells, these can bind to the insolubilized rab-anti-LDL-ab, and an immune complex which is bonded to the plastic surface is formed. Non-bonded proteins are removed by washing. The immune complex on the plastic surface is detected with monoclonal antibodies, which had been induced against human LDL according to standard conditions and purified. These antibodies were conjugated with the enzyme peroxidase (Boehringer, Mannheim). Peroxidase converts the colourless substrate TMB (Kirkegaard and Perry) into a coloured product in the presence of H2 O2. After acidification of the reaction mixture with H2 SO4, the specific light adsorption at 450 nm, which is a measure of the amount of ApoB-100-associated particles which had been secreted into the culture supernatant by the HepG2 cells, is determined.
# The IC50 value indicates the concentration of substance at which the light adsorption is inhibited by 50% in comparison with the control (solvent control without substance).
row,Structure (SMILES),IC50
1,O=C(NC(CO)c1cccc(F)c1)C(c1ccc(OCc2ccc3ccccc3n2)cc1)C1CCCC1 (stereo not shown) [Example 15],500 nM
2,O=C(NC(CO)c1cccs1)C(c1ccc(OCc2ccc3ccccc3n2)cc1)C1CCCC1 (stereo not shown) [Example 53],250 nM
3,O=C([C@H](c1ccc(OCc2ccc3ccccc3n2)cc1)C1CCCCCC1)N(CCO)c1ccccc1 [Example 127],130 nM
4,O=C(NCc1ccccc1)[C@H](c1ccc(OCc2ccc3ccccc3n2)cc1)C1CCCCCC1 [Example 141],20 nM
